Measurements: publication PMC5362899, “Structural insights into the nucleotide base specificity of P2X receptors” (Scientific Reports, 2017)
Numbering of substitutions follows the chain as printed.

Tests used:
Assay type in all cases: cell-based
[1] = biological target: T1, rat P2X4 rH140A mutant (Rattus norvegicus, UniProt P51577, H140A); assay: Two-Electrode Voltage Clamp recording, rat P2X4 H140A mutant in Xenopus oocytes; conditions: for fold reduced affinity as compared with rWT: rH140A mutant vs rWT, from EC50; for EC50 / nucleotide-evoked currents: rH140A mutant; for EC50: oocytes held at −70 mV, n = 7-8, read-out: EC50 (evoked current, dose-response); for nucleotide-evoked currents: 3 mM GTP, 3 mM UTP (Fig. S4)
T1 construct: rat P2X4 (NP_113782.1; WT and mutants) were transcribed from pGEMHE plasmids; expressed in transfected cells; host or cells: Xenopus laevis oocytes injected with cRNA from pGEMHE
T1 sequence (P51577 1-388 H140A): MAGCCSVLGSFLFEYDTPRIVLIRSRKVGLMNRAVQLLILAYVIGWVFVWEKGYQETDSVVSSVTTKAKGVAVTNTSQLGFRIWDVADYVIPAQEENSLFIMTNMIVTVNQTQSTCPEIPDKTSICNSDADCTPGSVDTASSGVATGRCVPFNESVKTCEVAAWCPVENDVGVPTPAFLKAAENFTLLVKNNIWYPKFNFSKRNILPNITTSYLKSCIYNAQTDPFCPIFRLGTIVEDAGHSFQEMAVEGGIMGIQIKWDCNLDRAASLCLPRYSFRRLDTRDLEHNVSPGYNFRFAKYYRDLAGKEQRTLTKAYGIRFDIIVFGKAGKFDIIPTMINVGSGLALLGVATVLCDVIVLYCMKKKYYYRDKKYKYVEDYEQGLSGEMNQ
Method: (§1) Figure 4 Current responses of ^rWT, ^rT186S, ^rH140A and ^rH140R evoked by ATP and CTP. (A,B) Representative currents of ^rWT evoked by ATP (1–300 μM) (A) and CTP (10–10,000 μM) (B). (C,D) Representative currents of the ^rT186S mutant evoked by ATP (1–300 μM) (C) and CTP (10–10,000 μM) (D). (E,F) Representative currents of the ^rH140A mutant evoked by ATP (1–300 μM) (E) and CTP (10–10,000 μM) (F). (G,H) Representative currents of the ^rH140R mutant evoked by ATP (1–300 μM) (G) and CTP (10–10,000 μM) (H). (I–K) Concentration-response curves evoked by ATP and CTP in the ^rWT and the ^rT186S mutant (I), in the ^rWT and the ^rH140A mutant (J) and in the ^rWT and the ^rH140R mutant (K). Symbols are defined in the figure, and bars depict means ± SEM (n = 7–9).
(§2) Next we assessed the functional role of R143 in zfP2X4, as its side chain forms a hydrogen bond with the cytosine ring in the CTP-bound structure (Fig. 3A,B). This arginine residue is substituted with a similar basic residue, histidine (^rH140), in rat P2X4 (Fig. 3E).
(§3) The cRNAs encoding zebrafish P2X4 (NP_705939; WT) and rat P2X4 (NP_113782.1; WT and mutants) were transcribed from pGEMHE plasmids, using a mMessage mMachine® T7 ULTRA kit (Ambion, Huntingdon, Cambridgeshire, UK). Xenopus laevis oocytes were prepared, and RNA (100 ng for zebrafish P2X4, and 20 ng for rat P2X4) was injected into the oocytes. The oocytes were incubated at 18 °C in Barth’s solution, containing 88 mM NaCl, 1 mM KCl, 2.4 mM NaHCO3, 10 mM HEPES, 0.33 mM Ca(NO3)2, 0.41 mM CaCl2, and 0.82 mM MgSO4, pH 7.4, supplemented with 50 μg/ml gentamicin, and were used for recording after 2–3 days. Recording solutions contained 100 mM NaCl, 5 mM HEPES, 2 mM MgCl2, pH 7.3, and nucleoside triphosphates (ATP, CTP, GTP, and UTP), which were freshly prepared each day. Oocytes were held at −70 mV with a bath-clamp amplifier (OC-725C, Warner Co., USA), and macroscopic currents were recorded and analyzed using the pClamp 10 software (Molecular Devices, USA)[33][34]. We measured n = 4 for zebrafish P2X4 data and n = 7–9 for rat P2X4 data.

[2] = biological target: T2, rat P2X4 rH140R mutant (Rattus norvegicus, UniProt P51577, H140R); assay: Two-Electrode Voltage Clamp recording, rat P2X4 H140R mutant in Xenopus oocytes; conditions: for fold reduced affinity as compared with rWT: rH140R mutant vs rWT, from EC50; for EC50 / nucleotide-evoked currents: rH140R mutant; for EC50: oocytes held at −70 mV, n = 9-10, read-out: EC50 (evoked current, dose-response); for nucleotide-evoked currents: 3 mM GTP, 3 mM UTP (Fig. S4)
T2 construct: rat P2X4 (NP_113782.1; WT and mutants) were transcribed from pGEMHE plasmids; expressed in transfected cells; host or cells: Xenopus laevis oocytes injected with cRNA from pGEMHE
T2 sequence (P51577 1-388 H140R): T1 sequence (P51577 1-388 H140A) with A140R
Method: as §1, §2, §3

[3] = biological target: T3, rat P2X4 rT186S mutant (Rattus norvegicus, UniProt P51577, T186S); assay: Two-Electrode Voltage Clamp recording, rat P2X4 T186S mutant in Xenopus oocytes; conditions: for nucleotide-evoked currents: GTP and UTP applied at 3 mM (Fig. S4); for EC50: oocytes held at −70 mV, n = 9, read-out: EC50 (evoked current, dose-response)
T3 construct: rat P2X4 (NP_113782.1; WT and mutants) were transcribed from pGEMHE plasmids; expressed in transfected cells; host or cells: Xenopus laevis oocytes injected with cRNA from pGEMHE
T3 sequence (P51577 1-388 T186S): T1 sequence (P51577 1-388 H140A) with A140H, T186S
Source text: To further investigate the functional roles of the residues involved in the base recognition, T189 and R143, we performed an electrophysiological analysis with the rat P2X4, since its electrophysiological properties have been well established. We first assessed the functional role of T189 in zfP2X4 and introduced mutations at the equivalent residue of the rat P2X4 to create three mutants (^rT186A, ^rT186V and ^rT186S; the superscript “r” means rat P2X4). […] Therefore, we examined the ^rWT and the ^rT186S mutant.
as §1, §3

SMILES	fold reduced affinity as compared with rWT [1]	EC50 [1] [µM]	fold reduced affinity as compared with rWT [2]	EC50 [2] [µM]	nucleotide-evoked currents [3]	EC50 [3] [µM]	nucleotide-evoked currents [1]	nucleotide-evoked currents [2]
Nc1ncnc2c1ncn2[C@@H]1O[C@H](COP(=O)(O)OP(=O)(O)OP(=O)(O)O)[C@@H](O)[C@H]1O [ATP, Adenosine 5-triphosphate]	about 2.5 fold	42.8 ± 6.3	about 2 fold	39.4 ± 5	ATP- and CTP-evoked currents were detected	29.9 ± 3.1	–	–
Nc1ccn([C@@H]2O[C@H](COP(=O)(O)OP(=O)(O)OP(=O)(O)O)[C@@H](O)[C@H]2O)c(=O)n1 [CTP]	~14 fold	7990	about 2 fold	1100 ± 140	ATP- and CTP-evoked currents were detected	557 ± 120	–	–
Nc1nc2c(ncn2[C@@H]2O[C@H](COP(=O)(O)OP(=O)(O)OP(=O)(O)O)[C@@H](O)[C@H]2O)c(=O)[nH]1 [GTP]	–	–	–	–	no GTP- and UTP-evoked currents were detected	–	no GTP- and UTP-evoked currents were detected	no GTP- and UTP-evoked currents were detected
O=c1ccn([C@@H]2O[C@H](COP(=O)(O)OP(=O)(O)OP(=O)(O)O)[C@@H](O)[C@H]2O)c(=O)[nH]1 [UTP]	–	–	–	–	no GTP- and UTP-evoked currents were detected	–	no GTP- and UTP-evoked currents were detected	no GTP- and UTP-evoked currents were detected
